Converted amounts (≈) assume the structure as drawn. Like-named read-outs stand apart in the source and are kept apart here. Blank lines part the entries; values can stand above or below the compound they belong to.
Columns and labels:
[1] = Physico-chemical characteristics: solubilities; assay type: physicochemical
[2] = Bio-availability: blood plasma level after injection of calves; assay type: in vivo
Method: As a measure of bio-availability, the blood plasma level of the compounds is determined on several days after the injection of calves with, in each case, 1 mg of compound/kg body weight.

Ctenocephalides felis = test: Action against fleas (infested dogs, oral); assay type: in vivo, Ctenocephalides felis (on dogs); conditions: 50 mg kg-1 day-1, dogs
Method: Dogs having the proven ability to support a flea population permanently are infested with 100 cat fleas Ctenocephalides felis Bouche. The infested dogs are then divided into 3 groups of 2 animals. […] The test compound is administered in the form of an aqueous suspension (by means of a syringe). The third group of animals is not treated and serves as a control group.
After 3, 8 and 10 days, the eggs of the fleas are collected from the paper which is under the dog cages. The eggs are counted, placed on a medium suitable for the culture of larvae and incubated. A count is made of the resulting pupae and fully grown fleas.

[3] = tested on: Lucilia sericata and L. cuprina; test: Action against blowflies; assay type: in vivo; conditions: 6.4 ppm, after at the most 96 h
Method: Freshly deposited eggs of the blowfly species Lucilia sericata and L. cuprina are placed in small portions (30 to 50 eggs) into each of a number of test tubes in which 4 ml of nutrient medium have been mixed with 1 ml of test solution at the intermediate dilution of the active ingredient necessary to obtain the final concentration. After inoculating the culture medium, the test tubes are sealed with cotton wool plugs and are then incubated in an incubator at 30° C. for 4 days. In the untreated medium, larvae about 1 cm in length (stage 3) have developed by the end of this 4-day period. When a compound is active the larvae are by the end of this period either dead or distinctly retarded. Four tests are carried out simultaneously with concentrations of 100, 40, 16 and 6.4 ppm, respectively. The activity is measured according to the lowest concentration that is still fully active (LC 100).

[4] = hexane, organic solvent or mixture, read-out: solubility in hexane
[5] = water, read-out: solubility in water

SMILES: O=C(NC(=O)c1c(F)cccc1F)Nc1ccc(Cl)c(Oc2ncc(C(F)(F)F)cc2Cl)c1 [(A)]
- solubility [1, 4]: 3 µg/mL (≈ 5.93 µM)
- solubility in isopropanol [1]: 0.09%
- solubility in n-octanol [1]: 0.065%
- solubility [1, 5]: 0.02 µg/mL (≈ 0.0395 µM)
- concentration at 24 h ([2]; bovine, plasma, 1 mg/kg, day 1, calf 1, 1 mg/kg injection): 7 ng/mL
- concentration at 24 h ([2]; bovine, plasma, 1 mg/kg, day 1, calf 2, 1 mg/kg injection): 5 ng/mL
- concentration at 168 h ([2]; bovine, plasma, 1 mg/kg, day 7, calf 1, 1 mg/kg injection): 3 ng/mL
- concentration at 168 h ([2]; bovine, plasma, 1 mg/kg, day 7, calf 2, 1 mg/kg injection): 4 ng/mL
- concentration at 336 h ([2]; bovine, plasma, 1 mg/kg, day 14, calf 1, 1 mg/kg injection): 4 ng/mL
- concentration at 336 h ([2]; bovine, plasma, 1 mg/kg, day 14, calf 2, 1 mg/kg injection): 9 ng/mL
- concentration at 504 h ([2]; bovine, plasma, 1 mg/kg, day 21, calf 1, 1 mg/kg injection): 7 ng/mL
- concentration at 504 h ([2]; bovine, plasma, 1 mg/kg, day 21, calf 2, 1 mg/kg injection): 10 ng/mL
- concentration at 672 h ([2]; bovine, plasma, 1 mg/kg, day 28, calf 1, 1 mg/kg injection): 6 ng/mL
- concentration at 672 h ([2]; bovine, plasma, 1 mg/kg, day 28, calf 2, 1 mg/kg injection): 5 ng/mL
- concentration at 840 h ([2]; bovine, plasma, 1 mg/kg, day 35, calf 1, 1 mg/kg injection): 6 ng/mL
- concentration at 840 h ([2]; bovine, plasma, 1 mg/kg, day 35, calf 2, 1 mg/kg injection): 10 ng/mL
- concentration at 1008 h ([2]; bovine, plasma, 1 mg/kg, day 42, calf 1, 1 mg/kg injection): 9 ng/mL
- concentration at 1008 h ([2]; bovine, plasma, 1 mg/kg, day 42, calf 2, 1 mg/kg injection): 6 ng/mL
- concentration at 1176 h ([2]; bovine, plasma, 1 mg/kg, day 49, calf 1, 1 mg/kg injection): 4 ng/mL
- concentration at 1176 h ([2]; bovine, plasma, 1 mg/kg, day 49, calf 2, 1 mg/kg injection): 4 ng/mL
- concentration at 1344 h ([2]; bovine, plasma, 1 mg/kg, day 56, calf 1, 1 mg/kg injection): 5 ng/mL
- concentration at 1344 h ([2]; bovine, plasma, 1 mg/kg, day 56, calf 2, 1 mg/kg injection): 5 ng/mL
- concentration at 1512 h ([2]; bovine, plasma, 1 mg/kg, day 63, calf 1, 1 mg/kg injection): 4 ng/mL
- concentration at 1512 h ([2]; bovine, plasma, 1 mg/kg, day 63, calf 2, 1 mg/kg injection): 6 ng/mL
- concentration at 1680 h ([2]; bovine, plasma, 1 mg/kg, day 70, calf 1, 1 mg/kg injection): 7 ng/mL
- concentration at 1680 h ([2]; bovine, plasma, 1 mg/kg, day 70, calf 2, 1 mg/kg injection): 5 ng/mL
- concentration at 1848 h ([2]; bovine, plasma, 1 mg/kg, day 77, calf 1, 1 mg/kg injection): 5 ng/mL
- concentration at 1848 h ([2]; bovine, plasma, 1 mg/kg, day 77, calf 2, 1 mg/kg injection): 2 ng/mL
- concentration at 2016 h ([2]; bovine, plasma, 1 mg/kg, day 84, calf 1, 1 mg/kg injection): 7 ng/mL
- concentration at 2016 h ([2]; bovine, plasma, 1 mg/kg, day 84, calf 2, 1 mg/kg injection): 7 ng/mL
- Cmax ([2]; bovine, plasma, calves, injection, 1 mg/kg, read-out: maximum concentration in the blood (plasma)): 7 to 10 ng/mL
- persistence of blood plasma level ([2]; level of 7 to 10 ppb, calves, 1 mg/kg): maintained over a relatively long period

- solubility [1, 4]: ~60 µg/mL (≈ 115 µM)
- solubility in isopropanol [1]: 0.30%
- solubility in n-octanol [1]: 0.56%
- solubility [1, 5]: 0.11 µg/mL (≈ 0.211 µM)
- concentration at 24 h ([2]; bovine, plasma, 1 mg/kg, day 1, calf 3, 1 mg/kg injection): 126 ng/mL
- concentration at 24 h ([2]; bovine, plasma, 1 mg/kg, day 1, calf 4, 1 mg/kg injection): 185 ng/mL
- concentration at 168 h ([2]; bovine, plasma, 1 mg/kg, day 7, calf 3, 1 mg/kg injection): 48 ng/mL
- concentration at 168 h ([2]; bovine, plasma, 1 mg/kg, day 7, calf 4, 1 mg/kg injection): 66 ng/mL
- concentration at 336 h ([2]; bovine, plasma, 1 mg/kg, day 14, calf 3, 1 mg/kg injection): 16 ng/mL
- concentration at 336 h ([2]; bovine, plasma, 1 mg/kg, day 14, calf 4, 1 mg/kg injection): 27 ng/mL
- concentration at 504 h ([2]; bovine, plasma, 1 mg/kg, day 21, calf 3, 1 mg/kg injection): 10 ng/mL
- concentration at 504 h ([2]; bovine, plasma, 1 mg/kg, day 21, calf 4, 1 mg/kg injection): 12 ng/mL
- concentration at 672 h ([2]; bovine, plasma, 1 mg/kg, day 28, calf 3, 1 mg/kg injection): 5 ng/mL
- concentration at 672 h ([2]; bovine, plasma, 1 mg/kg, day 28, calf 4, 1 mg/kg injection): 6 ng/mL
- concentration at 840 h ([2]; bovine, plasma, 1 mg/kg, day 35, calf 3, 1 mg/kg injection): 2 ng/mL
- concentration at 840 h ([2]; bovine, plasma, 1 mg/kg, day 35, calf 4, 1 mg/kg injection): 4 ng/mL
- Blood plasma level ([2]; day 42, calf 3, 1 mg/kg injection): 0 ppb
- Blood plasma level ([2]; day 42, calf 4, 1 mg/kg injection): 0 ppb
- Blood plasma level ([2]; day 49, calf 3, 1 mg/kg injection): 0 ppb
- Blood plasma level ([2]; day 49, calf 4, 1 mg/kg injection): 0 ppb
- Blood plasma level ([2]; day 56, calf 3, 1 mg/kg injection): 0 ppb
- Blood plasma level ([2]; day 56, calf 4, 1 mg/kg injection): 0 ppb
- Blood plasma level ([2]; day 63, calf 4, 1 mg/kg injection): 0 ppb
- Blood plasma level ([2]; day 70, calf 4, 1 mg/kg injection): 0 ppb
- Blood plasma level ([2]; day 77, calf 4, 1 mg/kg injection): 0 ppb
- Blood plasma level ([2]; day 84, calf 4, 1 mg/kg injection): 0 ppb
- blood plasma values compared with (A) ([2]; very rapidly after administration, calves, 1 mg/kg): higher blood plasma values
SMILES: Nc1ccc(F)c(C(=O)NC(=O)Nc2ccc(Cl)c(Oc3ncc(C(F)(F)F)cc3Cl)c2)c1F [Compound 1.1, N-[3-(3-chloro-5-trifluoromethylpyridyl-2-oxy)-4-chlorophenyl]-N'-[2,6-difluoro-3-aminobenzoyl]-urea]
- activity (Ctenocephalides felis): more than 50%
- bio-availability compared with (A) ([2]; calves, injection, 1 mg/kg): distinctly better bio-availability than does compound (A)
- excretion compared with (A) ([2]; calves, injection, 1 mg/kg): excreted considerably more rapidly than (A)
- reaching of high concentration in the blood plasma ([2]; calves, injection, 1 mg/kg): a high concentration in the blood plasma is reached very rapidly

SMILES: Nc1ccc(F)c(C(=O)NC(=O)Nc2ccc(F)c(Oc3ncc(C(F)(F)F)cc3Cl)c2)c1F [Compound 1.6, N-[3-(3-chloro-5-trifluoromethylpyridyl-2-oxy)-4-fluorophenyl]-N'-[2,6-difluoro-3-aminobenzoyl]-urea]
- activity (Ctenocephalides felis): more than 50%

SMILES: Nc1ccc(F)c(C(=O)NC(=O)Nc2ccc(Cl)c(Oc3ncc(C(F)(F)C(F)(Cl)Cl)cc3Cl)c2)c1F [Compound 1.9]
- mortality of the larvae [3]: 100%

SMILES: Nc1ccc(F)c(C(=O)NC(=O)Nc2cccc(Sc3ncc(C(F)(F)F)cc3Cl)c2)c1F [Compound 1.12]
- activity (Ctenocephalides felis): more than 50%
